Source: the NIST ThermoML archive (doi:10.1016/j.jct.2017.07.024)
± gives the expanded uncertainty stated by the source.

Tests used:
[1] = for surface tension liquid-gas: Maximal bubble pressure; for mass density: 100 kPa, Liquid, Vibrating tube method
[2] = refractive index (Na D-line) (dimensionless); conditions: 100 kPa, Liquid, Standard Abbe refractometry

CCCCCCn1cc[n+](C)c1.C[C@@H](O)[C@H](N)C(=O)[O-] [1-hexyl-3-methylimidazolium DL-threoninate]
surface tension liquid-gas ([1]; 288.15 K): 37 ± 0.5 mN/m
mass density ([1]; 288.15 K): 1089.98 ± 0.68 kg/m3
surface tension liquid-gas ([1]; 293.15 K): 36.6 ± 0.5 mN/m
mass density ([1]; 293.15 K): 1086.67 ± 0.68 kg/m3
surface tension liquid-gas ([1]; 298.15 K): 36.3 ± 0.5 mN/m
mass density ([1]; 298.15 K): 1083.36 ± 0.68 kg/m3
surface tension liquid-gas ([1]; 303.15 K): 36 ± 0.5 mN/m
mass density ([1]; 303.15 K): 1080.02 ± 0.68 kg/m3
surface tension liquid-gas ([1]; 308.15 K): 35.7 ± 0.5 mN/m
mass density ([1]; 308.15 K): 1076.7 ± 0.68 kg/m3
surface tension liquid-gas ([1]; 313.15 K): 35.4 ± 0.5 mN/m
mass density ([1]; 313.15 K): 1073.42 ± 0.67 kg/m3
surface tension liquid-gas ([1]; 318.15 K): 35 ± 0.5 mN/m
mass density ([1]; 318.15 K): 1069.96 ± 0.67 kg/m3
surface tension liquid-gas ([1]; 323.15 K): 34.7 ± 0.5 mN/m
mass density ([1]; 323.15 K): 1066.82 ± 0.67 kg/m3
surface tension liquid-gas ([1]; 328.15 K): 34.4 ± 0.5 mN/m
mass density ([1]; 328.15 K): 1063.52 ± 0.67 kg/m3
refractive index ([2]; 288.15 K): 1.5049 ± 0.0013
refractive index ([2]; 293.15 K): 1.5033 ± 0.0013
refractive index ([2]; 298.15 K): 1.5019 ± 0.0013
refractive index ([2]; 303.15 K): 1.5001 ± 0.0013
refractive index ([2]; 308.15 K): 1.4988 ± 0.0013
refractive index ([2]; 313.15 K): 1.4971 ± 0.0013
refractive index ([2]; 318.15 K): 1.4957 ± 0.0013
refractive index ([2]; 323.15 K): 1.494 ± 0.0013
refractive index ([2]; 328.15 K): 1.4925 ± 0.0013

CCCCCn1cc[n+](C)c1.C[C@@H](O)[C@H](N)C(=O)[O-] [1-pentyl-3-methylimidazolium DL-threoninate]
surface tension liquid-gas ([1]; 288.15 K): 38.2 ± 0.5 mN/m
mass density ([1]; 288.15 K): 1107.7 ± 0.68 kg/m3
surface tension liquid-gas ([1]; 293.15 K): 37.8 ± 0.5 mN/m
mass density ([1]; 293.15 K): 1104.39 ± 0.68 kg/m3
surface tension liquid-gas ([1]; 298.15 K): 37.6 ± 0.5 mN/m
mass density ([1]; 298.15 K): 1101.08 ± 0.68 kg/m3
surface tension liquid-gas ([1]; 303.15 K): 37.2 ± 0.5 mN/m
mass density ([1]; 303.15 K): 1097.75 ± 0.68 kg/m3
surface tension liquid-gas ([1]; 308.15 K): 36.9 ± 0.5 mN/m
mass density ([1]; 308.15 K): 1094.43 ± 0.68 kg/m3
surface tension liquid-gas ([1]; 313.15 K): 36.6 ± 0.5 mN/m
mass density ([1]; 313.15 K): 1091.16 ± 0.68 kg/m3
surface tension liquid-gas ([1]; 318.15 K): 36.2 ± 0.5 mN/m
mass density ([1]; 318.15 K): 1087.7 ± 0.68 kg/m3
surface tension liquid-gas ([1]; 323.15 K): 35.9 ± 0.5 mN/m
mass density ([1]; 323.15 K): 1084.55 ± 0.68 kg/m3
surface tension liquid-gas ([1]; 328.15 K): 35.6 ± 0.5 mN/m
mass density ([1]; 328.15 K): 1081.25 ± 0.68 kg/m3
refractive index ([2]; 288.15 K): 1.508 ± 0.0013
refractive index ([2]; 293.15 K): 1.5065 ± 0.0013
refractive index ([2]; 298.15 K): 1.5048 ± 0.0013
refractive index ([2]; 303.15 K): 1.5032 ± 0.0013
refractive index ([2]; 308.15 K): 1.5018 ± 0.0013
refractive index ([2]; 313.15 K): 1.5001 ± 0.0013
refractive index ([2]; 318.15 K): 1.4987 ± 0.0013
refractive index ([2]; 323.15 K): 1.497 ± 0.0013
refractive index ([2]; 328.15 K): 1.4955 ± 0.0013

CCCn1cc[n+](C)c1.C[C@@H](O)[C@H](N)C(=O)[O-] [1-propyl-3-methylimidazolium DL-threoninate]
surface tension liquid-gas ([1]; 288.15 K): 41.4 ± 0.5 mN/m
mass density ([1]; 288.15 K): 1151.33 ± 0.7 kg/m3
surface tension liquid-gas ([1]; 293.15 K): 41.1 ± 0.5 mN/m
mass density ([1]; 293.15 K): 1148.8 ± 0.7 kg/m3
surface tension liquid-gas ([1]; 298.15 K): 40.7 ± 0.5 mN/m
mass density ([1]; 298.15 K): 1144.52 ± 0.7 kg/m3
surface tension liquid-gas ([1]; 303.15 K): 40.4 ± 0.5 mN/m
mass density ([1]; 303.15 K): 1141.13 ± 0.7 kg/m3
surface tension liquid-gas ([1]; 308.15 K): 40.1 ± 0.5 mN/m
mass density ([1]; 308.15 K): 1137.76 ± 0.69 kg/m3
surface tension liquid-gas ([1]; 313.15 K): 39.8 ± 0.5 mN/m
mass density ([1]; 313.15 K): 1134.38 ± 0.69 kg/m3
surface tension liquid-gas ([1]; 318.15 K): 39.4 ± 0.5 mN/m
mass density ([1]; 318.15 K): 1130.9 ± 0.69 kg/m3
surface tension liquid-gas ([1]; 323.15 K): 39.1 ± 0.5 mN/m
mass density ([1]; 323.15 K): 1127.5 ± 0.69 kg/m3
surface tension liquid-gas ([1]; 328.15 K): 38.7 ± 0.5 mN/m
mass density ([1]; 328.15 K): 1124.07 ± 0.69 kg/m3
refractive index ([2]; 288.15 K): 1.5147 ± 0.0013
refractive index ([2]; 293.15 K): 1.5131 ± 0.0013
refractive index ([2]; 298.15 K): 1.5116 ± 0.0013
refractive index ([2]; 303.15 K): 1.5101 ± 0.0013
refractive index ([2]; 308.15 K): 1.5086 ± 0.0013
refractive index ([2]; 313.15 K): 1.5071 ± 0.0013
refractive index ([2]; 318.15 K): 1.5055 ± 0.0013
refractive index ([2]; 323.15 K): 1.5039 ± 0.0013
refractive index ([2]; 328.15 K): 1.5026 ± 0.0013
